Assay results as given in ChEMBL document CHEMBL4480409, “SGC-GAK-1: A Chemical Probe for Cyclin G Associated Kinase (GAK)” (J Med Chem, 2019).

Assays:
[1] = target: T1, Receptor-interacting serine/threonine-protein kinase 2 (Homo sapiens, UniProt O43353); experiment: Binding affinity to biotinylated human RIPK2 (1 to 310 residues) expressed in Escherichia coli incubated for 1.5 hrs by fluorescent tracer dependent TR-FRET based competitive ligand binding displacement assay
[2] = target: Atypical kinase COQ8A, mitochondrial (Homo sapiens, UniProt Q8NI60); experiment: Binding affinity to biotinylated full length human ADCK3 expressed in Escherichia coli incubated for 1.5 hrs by fluorescent tracer dependent TR-FRET based competitive ligand binding displacement assay
Atypical kinase COQ8A, mitochondrial, sequence (Q8NI60 whole entry, the tested form may be a part): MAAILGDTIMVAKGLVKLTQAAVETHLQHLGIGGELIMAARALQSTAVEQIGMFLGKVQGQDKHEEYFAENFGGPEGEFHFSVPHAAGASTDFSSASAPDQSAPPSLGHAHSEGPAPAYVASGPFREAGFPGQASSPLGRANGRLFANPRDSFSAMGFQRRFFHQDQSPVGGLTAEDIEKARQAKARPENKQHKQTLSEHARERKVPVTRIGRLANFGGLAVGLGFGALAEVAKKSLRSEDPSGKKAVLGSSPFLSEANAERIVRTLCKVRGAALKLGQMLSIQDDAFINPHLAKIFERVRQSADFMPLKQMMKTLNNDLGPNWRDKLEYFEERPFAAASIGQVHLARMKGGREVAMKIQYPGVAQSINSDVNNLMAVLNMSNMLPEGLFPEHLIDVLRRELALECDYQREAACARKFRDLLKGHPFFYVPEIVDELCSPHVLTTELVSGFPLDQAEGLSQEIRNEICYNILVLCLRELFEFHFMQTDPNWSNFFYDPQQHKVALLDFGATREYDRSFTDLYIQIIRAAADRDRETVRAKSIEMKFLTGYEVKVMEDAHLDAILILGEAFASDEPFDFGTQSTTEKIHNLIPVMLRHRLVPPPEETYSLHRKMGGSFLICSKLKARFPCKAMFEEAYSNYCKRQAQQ

[3] = target: T2, Cyclin-G-associated kinase (Homo sapiens, UniProt O14976); experiment: Binding affinity to biotinylated human GAK (13 to 338 residues) expressed in Escherichia coli incubated for 1.5 hrs by fluorescent tracer dependent TR-FRET based competitive ligand binding displacement assay
T2 sequence (O14976 whole entry): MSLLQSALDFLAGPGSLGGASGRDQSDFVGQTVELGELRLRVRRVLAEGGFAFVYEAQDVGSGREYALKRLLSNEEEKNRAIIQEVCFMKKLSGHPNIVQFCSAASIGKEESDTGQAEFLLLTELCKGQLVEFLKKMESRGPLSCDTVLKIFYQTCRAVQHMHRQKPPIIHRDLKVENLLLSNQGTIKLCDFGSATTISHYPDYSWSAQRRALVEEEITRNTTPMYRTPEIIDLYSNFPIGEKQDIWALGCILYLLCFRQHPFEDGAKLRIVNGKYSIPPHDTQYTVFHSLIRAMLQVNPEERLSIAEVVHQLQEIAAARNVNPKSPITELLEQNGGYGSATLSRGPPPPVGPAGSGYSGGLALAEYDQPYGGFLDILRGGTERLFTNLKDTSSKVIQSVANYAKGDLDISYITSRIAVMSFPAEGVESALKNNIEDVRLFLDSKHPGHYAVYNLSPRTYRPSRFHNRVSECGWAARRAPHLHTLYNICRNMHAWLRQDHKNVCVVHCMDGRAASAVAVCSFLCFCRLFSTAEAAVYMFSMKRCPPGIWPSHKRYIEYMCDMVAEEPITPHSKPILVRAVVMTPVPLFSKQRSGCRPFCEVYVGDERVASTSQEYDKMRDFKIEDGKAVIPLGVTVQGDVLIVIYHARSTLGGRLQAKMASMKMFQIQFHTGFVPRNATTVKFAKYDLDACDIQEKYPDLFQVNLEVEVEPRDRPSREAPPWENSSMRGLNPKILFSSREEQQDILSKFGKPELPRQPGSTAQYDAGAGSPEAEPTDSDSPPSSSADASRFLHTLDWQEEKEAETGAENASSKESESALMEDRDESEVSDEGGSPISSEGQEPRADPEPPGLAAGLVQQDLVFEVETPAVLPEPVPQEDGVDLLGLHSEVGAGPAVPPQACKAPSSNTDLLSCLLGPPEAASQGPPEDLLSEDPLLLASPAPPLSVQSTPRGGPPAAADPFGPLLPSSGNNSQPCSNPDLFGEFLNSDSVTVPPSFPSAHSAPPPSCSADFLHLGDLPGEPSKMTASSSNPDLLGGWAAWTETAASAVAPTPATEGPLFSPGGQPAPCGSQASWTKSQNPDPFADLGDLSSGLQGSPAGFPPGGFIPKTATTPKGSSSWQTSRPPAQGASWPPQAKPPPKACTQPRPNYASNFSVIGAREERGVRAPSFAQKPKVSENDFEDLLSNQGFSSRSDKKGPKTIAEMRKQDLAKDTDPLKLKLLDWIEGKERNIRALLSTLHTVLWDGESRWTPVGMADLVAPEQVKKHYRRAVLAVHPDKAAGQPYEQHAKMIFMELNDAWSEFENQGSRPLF

[4] = target: T3, Serine/threonine-protein kinase NLK (Homo sapiens, UniProt Q9UBE8); experiment: Binding affinity to biotinylated full length human NLK expressed in Escherichia coli incubated for 1.5 hrs by fluorescent tracer dependent TR-FRET based competitive ligand binding displacement assay
T3 sequence (Q9UBE8 whole entry): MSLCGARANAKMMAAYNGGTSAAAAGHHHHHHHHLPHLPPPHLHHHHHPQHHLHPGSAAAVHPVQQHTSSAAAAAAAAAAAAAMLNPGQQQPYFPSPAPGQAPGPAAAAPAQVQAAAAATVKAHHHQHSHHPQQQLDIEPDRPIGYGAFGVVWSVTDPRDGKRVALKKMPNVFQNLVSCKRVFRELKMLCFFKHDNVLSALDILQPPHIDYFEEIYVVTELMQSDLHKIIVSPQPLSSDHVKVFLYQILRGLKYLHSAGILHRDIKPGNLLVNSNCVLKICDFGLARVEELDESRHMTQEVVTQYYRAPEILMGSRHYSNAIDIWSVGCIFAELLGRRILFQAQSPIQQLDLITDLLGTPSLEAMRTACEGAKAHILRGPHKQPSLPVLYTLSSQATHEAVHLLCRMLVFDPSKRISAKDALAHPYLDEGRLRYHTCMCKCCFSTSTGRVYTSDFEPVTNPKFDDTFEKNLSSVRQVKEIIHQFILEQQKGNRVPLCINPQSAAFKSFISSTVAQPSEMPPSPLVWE

[5] = target: T1, Receptor-interacting serine/threonine-protein kinase 2; experiment: Displacement of fluorescent tracer from N-terminus of human RIPK2 expressed in HEK293T cells after 2 hrs by NanoBRET target engagement assay; assay type: cell-based
[6] = target: T2, Cyclin-G-associated kinase
[7] = target: T2, Cyclin-G-associated kinase; experiment: Displacement of fluorescent tracer from N-terminus of human GAK expressed in HEK293T cells after 2 hrs by NanoBRET target engagement assay; assay type: cell-based
[8] = target: T4, Cyclin-G-associated kinase (Homo sapiens) (UniProt O14976)
T4 sequence (whole entry): T2 sequence (O14976 whole entry)
Description: Binding affinity to GAK (unknown origin) assessed as change in melting temperature by DSF assay

[9] = target: T5, Interleukin-1 receptor-associated kinase 3 (Homo sapiens, UniProt Q9Y616); experiment: Binding affinity to human IRAK3 (147 to 596 residues) expressed in bacterial expression system by KINOMEscan assay
T5 sequence (Q9Y616 whole entry): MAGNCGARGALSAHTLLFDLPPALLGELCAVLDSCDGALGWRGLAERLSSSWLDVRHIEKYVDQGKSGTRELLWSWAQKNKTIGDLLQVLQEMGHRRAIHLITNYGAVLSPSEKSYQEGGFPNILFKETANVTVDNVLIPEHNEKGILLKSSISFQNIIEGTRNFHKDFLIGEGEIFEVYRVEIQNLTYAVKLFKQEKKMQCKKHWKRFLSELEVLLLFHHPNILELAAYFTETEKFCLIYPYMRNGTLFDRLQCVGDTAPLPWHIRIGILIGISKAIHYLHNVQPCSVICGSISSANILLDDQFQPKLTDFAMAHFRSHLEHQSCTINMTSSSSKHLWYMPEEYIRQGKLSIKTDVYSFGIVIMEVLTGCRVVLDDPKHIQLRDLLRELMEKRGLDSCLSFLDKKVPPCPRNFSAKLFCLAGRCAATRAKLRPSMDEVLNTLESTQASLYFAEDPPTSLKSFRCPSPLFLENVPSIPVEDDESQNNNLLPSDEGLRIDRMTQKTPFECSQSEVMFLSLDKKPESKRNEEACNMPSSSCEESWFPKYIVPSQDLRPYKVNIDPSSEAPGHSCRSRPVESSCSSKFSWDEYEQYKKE

[10] = target: AP2-associated protein kinase 1 (Homo sapiens, UniProt Q2M2I8); experiment: Binding affinity to C-terminal AVI-tagged AAK1 (unknown origin) (31 to 396 residues) expressed in Escherichia coli after 1.5 hrs by TR-FRET assay
AP2-associated protein kinase 1, sequence (Q2M2I8 whole entry, the tested form may be a part): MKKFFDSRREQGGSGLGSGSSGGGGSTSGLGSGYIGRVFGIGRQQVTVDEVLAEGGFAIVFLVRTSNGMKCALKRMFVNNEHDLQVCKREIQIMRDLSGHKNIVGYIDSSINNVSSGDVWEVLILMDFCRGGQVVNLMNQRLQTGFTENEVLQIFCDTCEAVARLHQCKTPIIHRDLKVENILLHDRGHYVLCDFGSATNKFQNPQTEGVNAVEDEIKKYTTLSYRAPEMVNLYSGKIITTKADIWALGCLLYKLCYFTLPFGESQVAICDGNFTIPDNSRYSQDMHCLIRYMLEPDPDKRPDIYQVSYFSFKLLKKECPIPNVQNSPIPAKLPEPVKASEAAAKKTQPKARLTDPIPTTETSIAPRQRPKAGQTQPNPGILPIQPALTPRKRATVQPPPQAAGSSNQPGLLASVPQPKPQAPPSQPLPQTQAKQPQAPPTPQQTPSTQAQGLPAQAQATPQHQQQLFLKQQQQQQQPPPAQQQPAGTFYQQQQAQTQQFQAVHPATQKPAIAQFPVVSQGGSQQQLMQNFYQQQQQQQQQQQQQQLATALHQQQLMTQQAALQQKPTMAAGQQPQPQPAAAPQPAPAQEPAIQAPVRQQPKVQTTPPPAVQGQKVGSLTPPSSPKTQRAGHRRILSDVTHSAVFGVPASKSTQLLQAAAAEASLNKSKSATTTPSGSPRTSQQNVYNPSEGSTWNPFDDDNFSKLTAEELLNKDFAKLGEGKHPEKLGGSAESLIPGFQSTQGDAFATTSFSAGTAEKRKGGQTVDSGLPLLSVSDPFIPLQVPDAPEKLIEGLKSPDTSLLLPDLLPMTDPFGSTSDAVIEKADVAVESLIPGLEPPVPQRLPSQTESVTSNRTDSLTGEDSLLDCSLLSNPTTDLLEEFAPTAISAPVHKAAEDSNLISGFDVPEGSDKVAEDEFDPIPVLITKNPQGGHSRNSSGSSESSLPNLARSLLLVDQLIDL

[11] = target: BMP-2-inducible protein kinase (Homo sapiens, UniProt Q9NSY1); experiment: Binding affinity to C-terminal AVI-tagged BMP2K (unknown origin) (38 to 345 residues) expressed in Escherichia coli after 1.5 hrs by TR-FRET assay
BMP-2-inducible protein kinase, sequence (Q9NSY1 whole entry, the tested form may be a part): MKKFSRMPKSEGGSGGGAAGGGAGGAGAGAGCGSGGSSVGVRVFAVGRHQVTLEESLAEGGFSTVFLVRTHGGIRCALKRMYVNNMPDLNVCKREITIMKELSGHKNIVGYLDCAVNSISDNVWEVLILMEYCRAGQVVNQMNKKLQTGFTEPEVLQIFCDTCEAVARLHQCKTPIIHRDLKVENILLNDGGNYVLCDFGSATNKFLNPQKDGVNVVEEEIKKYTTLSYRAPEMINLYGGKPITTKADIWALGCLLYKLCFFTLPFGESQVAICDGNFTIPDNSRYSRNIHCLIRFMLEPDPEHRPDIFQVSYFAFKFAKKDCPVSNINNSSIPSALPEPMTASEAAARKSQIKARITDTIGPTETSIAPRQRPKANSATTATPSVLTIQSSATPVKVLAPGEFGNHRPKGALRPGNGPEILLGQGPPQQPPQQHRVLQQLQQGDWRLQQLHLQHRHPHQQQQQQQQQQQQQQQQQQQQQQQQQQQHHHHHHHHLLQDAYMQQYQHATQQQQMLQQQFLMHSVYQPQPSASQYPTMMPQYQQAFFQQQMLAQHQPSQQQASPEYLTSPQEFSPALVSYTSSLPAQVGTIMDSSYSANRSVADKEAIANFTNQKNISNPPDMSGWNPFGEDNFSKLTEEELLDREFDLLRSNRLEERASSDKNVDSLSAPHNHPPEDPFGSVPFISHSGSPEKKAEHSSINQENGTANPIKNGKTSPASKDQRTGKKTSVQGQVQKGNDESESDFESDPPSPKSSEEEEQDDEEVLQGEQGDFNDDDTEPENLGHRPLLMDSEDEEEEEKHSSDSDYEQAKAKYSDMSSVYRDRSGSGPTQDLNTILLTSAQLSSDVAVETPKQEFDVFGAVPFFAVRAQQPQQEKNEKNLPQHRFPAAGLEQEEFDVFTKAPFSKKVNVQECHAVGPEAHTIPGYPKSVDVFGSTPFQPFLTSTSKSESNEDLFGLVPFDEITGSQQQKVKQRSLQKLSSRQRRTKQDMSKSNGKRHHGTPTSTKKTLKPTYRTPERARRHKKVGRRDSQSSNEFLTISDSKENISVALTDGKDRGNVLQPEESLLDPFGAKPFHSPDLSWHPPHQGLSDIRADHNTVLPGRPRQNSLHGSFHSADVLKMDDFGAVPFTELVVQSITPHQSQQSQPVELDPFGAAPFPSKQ

[12] = target: Serine/threonine-protein kinase 16 (Homo sapiens, UniProt O75716); experiment: Binding affinity to C-terminal AVI-tagged STK16 (unknown origin) (13 to 305 residues) expressed in Escherichia coli after 1.5 hrs by TR-FRET assay
Serine/threonine-protein kinase 16, sequence (O75716 whole entry, the tested form may be a part): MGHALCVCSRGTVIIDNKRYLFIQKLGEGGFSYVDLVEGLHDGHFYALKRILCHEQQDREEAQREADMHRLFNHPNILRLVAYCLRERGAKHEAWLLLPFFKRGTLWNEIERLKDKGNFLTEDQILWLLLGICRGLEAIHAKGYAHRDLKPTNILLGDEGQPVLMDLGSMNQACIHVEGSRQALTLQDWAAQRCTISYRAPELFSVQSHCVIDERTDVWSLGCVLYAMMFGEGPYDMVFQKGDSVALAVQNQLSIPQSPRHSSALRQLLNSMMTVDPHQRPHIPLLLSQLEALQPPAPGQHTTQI

[13] = tested on: LNCaP; experiment: Cytotoxicity against human LNCAP cells after 72 hrs by MTS assay; assay type: functional, cell-based
[14] = tested on: CWR22R; experiment: Cytotoxicity against human 22Rv1 cells after 72 hrs by MTS assay; assay type: functional, cell-based; settings: 22Rv1, 72 h
[15] = target: T4, Cyclin-G-associated kinase (Homo sapiens); experiment: Binding affinity to biotinylated human GAK (13 to 338 residues) expressed in Escherichia coli at 1 uM incubated for 1.5 hrs by fluorescent tracer dependent TR-FRET based competitive ligand binding displacement assay
[16] = target: T2, Cyclin-G-associated kinase; experiment: Binding affinity to GAK (unknown origin)

T1 sequence (O43353 whole entry, the tested form may be a part): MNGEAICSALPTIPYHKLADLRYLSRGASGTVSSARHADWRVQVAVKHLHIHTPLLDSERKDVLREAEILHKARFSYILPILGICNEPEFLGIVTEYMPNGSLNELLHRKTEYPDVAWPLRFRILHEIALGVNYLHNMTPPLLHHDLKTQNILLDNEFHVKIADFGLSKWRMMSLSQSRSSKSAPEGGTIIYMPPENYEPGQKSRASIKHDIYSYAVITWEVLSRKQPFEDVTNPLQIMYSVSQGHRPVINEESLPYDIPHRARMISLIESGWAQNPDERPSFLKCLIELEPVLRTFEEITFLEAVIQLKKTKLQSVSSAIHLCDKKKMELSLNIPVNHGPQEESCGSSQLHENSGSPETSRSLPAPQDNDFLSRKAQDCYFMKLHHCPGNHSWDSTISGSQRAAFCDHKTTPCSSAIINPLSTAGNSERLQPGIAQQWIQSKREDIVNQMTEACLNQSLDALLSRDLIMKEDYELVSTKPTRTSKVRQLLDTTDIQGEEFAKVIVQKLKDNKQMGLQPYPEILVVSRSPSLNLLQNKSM

## COc1cc2nccc(Nc3cc(OC)c(OC)c(OC)c3)c2cc1OC
[1]
  Kd: 42 nM
[2]
  Kd: 250 nM
[3]
  Kd: 2.9 nM
[4]
  Kd: 410 nM

## COc1cc(Nc2ccnc3ccc(Cl)cc23)cc(OC)c1OC
[1]
  Kd: 85 nM
[2]
  Kd: 170 nM
[3]
  Kd: 6.7 nM
[4]
  Kd: 650 nM

## COc1cc(Nc2ccnc3cc(C#N)ccc23)cc(OC)c1OC
[1]
  Kd: 96 nM
[2]
  Kd: 66 nM
[3]
  Kd: 9.7 nM
[4]
  Kd: 28 nM

## Clc1cc2cc(c1)-c1cnn3ccc(nc13)NCCOCCO2
[5]
  IC50: 11 nM
[6]
  Ki: 3.8 nM
[7]
  IC50: 60 nM

## COc1ccc2nccc(Nc3cc(OC)c(OC)c(OC)c3)c2c1
[1]
  Kd: 170 nM
[2]
  Kd: 2000 nM
[3]
  Kd: 21 nM
[4]
  Kd: 2600 nM

## Cc1[nH]nc(Nc2ncnc3cc(OCCO)c(S(=O)(=O)C(C)(C)C)cc23)c1C
[6]
  Ki: 49 nM

## COc1cc(Nc2ccnc3ccc(C(C)(C)C)cc23)cc(OC)c1OC
[1]
  Kd: 670 nM
[2]
  Kd: 740 nM
[3]
  Kd: 25 nM
[4]
  Kd: 350 nM

## COc1cc(Nc2ccnc3ccc(I)cc23)cc(OC)c1OC
[1]
  Kd: 69 nM
[2]
  Kd: 190 nM
[3]
  Kd: 7.9 nM
[4]
  Kd: 660 nM

## COc1cc(N(C)c2ccnc3ccc(C(F)(F)F)cc23)cc(OC)c1OC
[8]
  ΔTm: -0.3 °C
[6]
  Ki: 2500 nM
[9]
  Kd: 740 nM
[10]
  Ki: 78000 nM
[11]
  Ki: 95000 nM
[12]
  Ki: 15000 nM
[13]
  IC50: > 100000 nM
[14]
  IC50: > 100000 nM

## COc1ccc2c(Nc3cc(OC)c(OC)c(OC)c3)ccnc2c1
[1]
  Kd: 200 nM
[2]
  Kd: 1200 nM
[3]
  Kd: 17 nM
[4]
  Kd: 700 nM

## COc1cc(Nc2cc(C)nc3ccc(C(F)(F)F)cc23)cc(OC)c1OC
[8]
  ΔTm: -0.52 °C
[6]
  Ki: 19000 nM
[10]
  Ki: > 100000 nM
[11]
  Ki: > 100000 nM
[12]
  Ki: > 100000 nM

## COc1cc(Nc2ccnc3ccc(Br)cc23)cc(OC)c1OC
[8]
  ΔTm: 7.7 °C
[5]
  IC50: 360 nM
[1]
  Kd: 110 nM
[11]
  Ki: > 100000 nM
[2]
  Kd: 190 nM
[13]
  IC50: 650 nM
[4]
  Kd: 520 nM
[14]
  IC50: 170 nM

## CC(C)(C)S(=O)(=O)c1ccc2nccc(Nc3n[nH]c4ccc(F)cc34)c2c1
[6]
  Ki: 220 nM

## COc1cc(Nc2ccnc3ccc(C(F)(F)F)cc23)cc(OC)c1OC
[15]
  Activity: > 50%
[4]
  Kd: 790 nM

## CC(C)(C)S(=O)(=O)c1cc2c(Nc3ccc4scnc4c3)ncnc2cc1OCCO
[5]
  IC50: 2 nM
[6]
  Ki: 8200 nM
[7]
  IC50: > 10000 nM

## COc1cc(Nc2ccnc3ccc(C#N)cc23)cc(OC)c1OC
[1]
  Kd: 88 nM
[2]
  Kd: 170 nM
[3]
  Kd: 3.9 nM
[4]
  Kd: 29 nM

## COc1cc(-c2cnc3c(N4CCOCC4)snc3c2)cc(OC)c1OC
[16]
  Kd: 8.9 nM

## COc1cc(Nc2ccnc3ccccc23)cc(OC)c1OC
[1]
  Kd: 2900 nM
[2]
  Kd: 4100 nM
[3]
  Kd: 59 nM
[4]
  Kd: 6200 nM
